Measurements published in the NIST ThermoML archive (doi:10.1016/j.jct.2016.12.032).

Experiment: xn = mol fraction of the nth substance listed
Settings: 100 kPa, Liquid; for viscosity: Capillary tube (Ostwald / Ubbelohde) method; for mass density: Vibrating tube method

O=C1CCCCCO1 [6-hexanolactone] + CCCC[n+]1ccn(C)c1.O=S(=O)([N-]S(=O)(=O)C(F)(F)F)C(F)(F)F
Settings	mass density [kg/m3]	viscosity [mPa·s]
293.15 K, x2 = 0	1075.92	6.63
293.15 K, x2 = 0.05	1122.04	7.97
293.15 K, x2 = 0.1002	1161.48	9.67
293.15 K, x2 = 0.1505	1195.51	11.48
293.15 K, x2 = 0.1985	1223.86	13.4
293.15 K, x2 = 0.3001	1273.58	18.05
293.15 K, x2 = 0.3987	1311.9	23.25
293.15 K, x2 = 0.4903	1341.13	28.59
293.15 K, x2 = 0.6309	1377.36	37.38
293.15 K, x2 = 0.6988	1391.97	41.8
293.15 K, x2 = 0.8042	1411.81	48.8
293.15 K, x2 = 0.883	1424.76	54.08
298.15 K, x2 = 0	1071.67	5.76
298.15 K, x2 = 0.05	1117.68	6.87
298.15 K, x2 = 0.1002	1157.04	8.29
298.15 K, x2 = 0.1505	1191	9.78
298.15 K, x2 = 0.1985	1219.3	11.34
298.15 K, x2 = 0.3001	1268.92	15.14
298.15 K, x2 = 0.3987	1307.17	19.36
298.15 K, x2 = 0.4903	1336.35	23.66
298.15 K, x2 = 0.6309	1372.52	30.61
298.15 K, x2 = 0.6988	1387.11	34.05
298.15 K, x2 = 0.8042	1406.92	39.48
298.15 K, x2 = 0.883	1419.85	43.58
303.15 K, x2 = 0	1067.41	5.04
303.15 K, x2 = 0.05	1113.3	5.97
303.15 K, x2 = 0.1002	1152.56	7.18
303.15 K, x2 = 0.1505	1186.44	8.42
303.15 K, x2 = 0.1985	1214.67	9.71
303.15 K, x2 = 0.3001	1264.18	12.78
303.15 K, x2 = 0.3987	1302.35	16.15
303.15 K, x2 = 0.4903	1331.47	19.54
303.15 K, x2 = 0.6309	1367.57	25.2
303.15 K, x2 = 0.6988	1382.12	28.07
303.15 K, x2 = 0.8042	1401.89	32.58
303.15 K, x2 = 0.883	1414.8	36.02
308.15 K, x2 = 0	1063.15	4.44
308.15 K, x2 = 0.05	1108.94	5.22
308.15 K, x2 = 0.1002	1148.11	6.25
308.15 K, x2 = 0.1505	1181.92	7.26
308.15 K, x2 = 0.1985	1210.09	8.36
308.15 K, x2 = 0.3001	1259.51	10.91
308.15 K, x2 = 0.3987	1297.6	13.67
308.15 K, x2 = 0.4903	1326.67	16.42
308.15 K, x2 = 0.6309	1362.7	20.93
308.15 K, x2 = 0.6988	1377.23	23.21
308.15 K, x2 = 0.8042	1396.97	26.77
308.15 K, x2 = 0.883	1409.86	29.49
313.15 K, x2 = 0	1058.9	3.95
313.15 K, x2 = 0.05	1104.57	4.61
313.15 K, x2 = 0.1002	1143.65	5.5
313.15 K, x2 = 0.1505	1177.38	6.41
313.15 K, x2 = 0.1985	1205.49	7.35
313.15 K, x2 = 0.3001	1254.8	9.43
313.15 K, x2 = 0.3987	1292.82	11.71
313.15 K, x2 = 0.4903	1321.83	14.07
313.15 K, x2 = 0.6309	1357.8	17.79
313.15 K, x2 = 0.6988	1372.3	19.67
313.15 K, x2 = 0.8042	1392.01	22.59
313.15 K, x2 = 0.883	1404.86	24.85
318.15 K, x2 = 0	1054.65	3.53
318.15 K, x2 = 0.05	1100.22	4.07
318.15 K, x2 = 0.1002	1139.2	4.87
318.15 K, x2 = 0.1505	1172.86	5.67
318.15 K, x2 = 0.1985	1200.91	6.5
318.15 K, x2 = 0.3001	1250.12	8.31
318.15 K, x2 = 0.3987	1288.06	10.27
318.15 K, x2 = 0.4903	1317.02	12.18
318.15 K, x2 = 0.6309	1352.92	15.24
318.15 K, x2 = 0.6988	1367.39	16.82
318.15 K, x2 = 0.8042	1387.06	19.24
318.15 K, x2 = 0.883	1399.89	21.07
323.15 K, x2 = 0	1050.4	3.17
323.15 K, x2 = 0.05	1095.86	3.69
323.15 K, x2 = 0.1002	1134.75	4.36
323.15 K, x2 = 0.1505	1168.33	5.03
323.15 K, x2 = 0.1985	1196.32	5.73
323.15 K, x2 = 0.3001	1245.42	7.26
323.15 K, x2 = 0.3987	1283.28	8.9
323.15 K, x2 = 0.4903	1312.18	10.53
323.15 K, x2 = 0.6309	1348.01	13.14
323.15 K, x2 = 0.6988	1362.45	14.49
323.15 K, x2 = 0.8042	1382.08	16.64
323.15 K, x2 = 0.883	1394.89	18.26

CC1CCC(=O)O1 (stereo unspecified) [γ-valerolactone] + CCCC[n+]1ccn(C)c1.O=S(=O)([N-]S(=O)(=O)C(F)(F)F)C(F)(F)F
Settings	mass density [kg/m3]	viscosity [mPa·s]
293.15 K, x2 = 0	1053.99	1.99
293.15 K, x2 = 0.0505	1108.43	2.51
293.15 K, x2 = 0.1001	1153.24	3.21
293.15 K, x2 = 0.1492	1191.45	4.28
293.15 K, x2 = 0.1998	1223.25	5.6
293.15 K, x2 = 0.3008	1274.04	8.84
293.15 K, x2 = 0.4031	1317.29	13.88
293.15 K, x2 = 0.5048	1347.03	19.18
293.15 K, x2 = 0.6031	1373.16	25.88
293.15 K, x2 = 0.6973	1393.96	33.12
293.15 K, x2 = 0.7994	1413.3	42.31
293.15 K, x2 = 0.8711	1426.6	50.45
298.15 K, x2 = 0	1049.28	1.82
298.15 K, x2 = 0.0505	1103.66	2.21
298.15 K, x2 = 0.1001	1148.42	2.76
298.15 K, x2 = 0.1492	1186.58	3.57
298.15 K, x2 = 0.1998	1218.36	4.71
298.15 K, x2 = 0.3008	1269.12	7.2
298.15 K, x2 = 0.4031	1312.35	11.11
298.15 K, x2 = 0.5048	1342.1	15.34
298.15 K, x2 = 0.6031	1368.22	20.69
298.15 K, x2 = 0.6973	1389.01	26.55
298.15 K, x2 = 0.7994	1408.36	34.16
298.15 K, x2 = 0.8711	1421.67	40.79
303.15 K, x2 = 0	1044.58	1.67
303.15 K, x2 = 0.0505	1098.86	1.98
303.15 K, x2 = 0.1001	1143.54	2.45
303.15 K, x2 = 0.1492	1181.67	3.13
303.15 K, x2 = 0.1998	1213.42	4.03
303.15 K, x2 = 0.3008	1264.12	6.01
303.15 K, x2 = 0.4031	1307.33	9.11
303.15 K, x2 = 0.5048	1337.07	12.52
303.15 K, x2 = 0.6031	1363.16	17.18
303.15 K, x2 = 0.6973	1383.94	21.62
303.15 K, x2 = 0.7994	1403.29	27.85
303.15 K, x2 = 0.8711	1416.59	33.15
308.15 K, x2 = 0	1039.87	1.53
308.15 K, x2 = 0.0505	1094.09	1.81
308.15 K, x2 = 0.1001	1138.71	2.22
308.15 K, x2 = 0.1492	1176.8	2.79
308.15 K, x2 = 0.1998	1208.52	3.53
308.15 K, x2 = 0.3008	1259.2	5.16
308.15 K, x2 = 0.4031	1302.39	7.78
308.15 K, x2 = 0.5048	1332.11	10.6
308.15 K, x2 = 0.6031	1358.2	14.12
308.15 K, x2 = 0.6973	1378.98	17.97
308.15 K, x2 = 0.7994	1398.34	22.82
308.15 K, x2 = 0.8711	1411.63	27.09
313.15 K, x2 = 0	1035.16	1.42
313.15 K, x2 = 0.0505	1089.31	1.65
313.15 K, x2 = 0.1001	1133.87	2
313.15 K, x2 = 0.1492	1171.93	2.45
313.15 K, x2 = 0.1998	1203.61	3.17
313.15 K, x2 = 0.3008	1254.26	4.5
313.15 K, x2 = 0.4031	1297.42	6.65
313.15 K, x2 = 0.5048	1327.12	9.02
313.15 K, x2 = 0.6031	1353.2	12.05
313.15 K, x2 = 0.6973	1373.98	15.14
313.15 K, x2 = 0.7994	1393.33	19.14
313.15 K, x2 = 0.8711	1406.62	22.7
318.15 K, x2 = 0	1030.45	1.32
318.15 K, x2 = 0.0505	1084.53	1.52
318.15 K, x2 = 0.1001	1129.05	1.79
318.15 K, x2 = 0.1492	1167.06	2.22
318.15 K, x2 = 0.1998	1198.73	2.8
318.15 K, x2 = 0.3008	1249.35	4.03
318.15 K, x2 = 0.4031	1292.49	5.76
318.15 K, x2 = 0.5048	1322.17	7.84
318.15 K, x2 = 0.6031	1348.24	10.41
318.15 K, x2 = 0.6973	1369.02	12.96
318.15 K, x2 = 0.7994	1388.35	16.42
318.15 K, x2 = 0.8711	1401.62	19.25
323.15 K, x2 = 0	1025.74	1.23
323.15 K, x2 = 0.0505	1079.76	1.41
323.15 K, x2 = 0.1001	1124.22	1.66
323.15 K, x2 = 0.1492	1162.18	2.04
323.15 K, x2 = 0.1998	1193.83	2.49
323.15 K, x2 = 0.3008	1244.4	3.59
323.15 K, x2 = 0.4031	1287.51	5.19
323.15 K, x2 = 0.5048	1317.18	6.98
323.15 K, x2 = 0.6031	1343.25	9.22
323.15 K, x2 = 0.6973	1364.02	11.45
323.15 K, x2 = 0.7994	1383.35	14.32
323.15 K, x2 = 0.8711	1396.6	16.68
